Experimental data from patent US8455397B2, “Penoxsulam as a turfgrass, vineyard and orchard floor herbicide” (Dow AgroSciences, LLC, priority 2005, dated 2013).

Tests used:
[1] = system: common groundsel (SENVU); experiment: Pre-emergence orchard floor weeds, greenhouse study; format: in vivo, Senecio vulgaris; conditions: 28 Days After Application
Protocol: Greenhouse studies were conducted by seeding species in a loam soil and applying the herbicides to the soil surface using a Cornwall 5 milliliter glass syringe fitted with a TeeJet TN-3 nozzle on an area basis Immediately following herbicide application the pots were irrigated over the top to move the herbicides into the seeding zone. Pots were kept well irrigated throughout the trial. A percent visual weed control assessment was taken 4 weeks after application. Control was determined visually by comparing treated and untreated pots and scored on a 0 to 100 percent scale where 0 corresponds to no control and 100 corresponds to complete kill, or no emergence.

[2] = system: pennywort (dollarweed) (HYDSS); experiment: Granule carrier/particle size, postemergent field study; format: in vivo, Hydrocotyle spp
Protocol: Greenhouse and field studies evaluated the effect of two granule carriers and two particles sizes on the postemergent broadleaf activity of penoxsulam. The two carriers were a 46-0-0 and 28-4-12 fertilizer blend and the particle sizes averaged 0.75 mm and 2.15 mm.
Field studies were conducted in established turfgrass sites containing a natural population of target broadleaf weeds. Replicated trials, containing a minimum of three replications and having individual plots ranging in size from 25 to 50 ft. sq (2.3 to 4.6 square meters), were initiated in the late spring when turf and weeds were actively growing. Granule treatments were uniformly applied to individual plots using a common hand-shaker method. Applications were made in the early morning when dew was present. Natural rainfall and supplemental irrigation were used to maintain healthy turf and active weed growth throughout the study period. Control of each weed species in the study site was made at 2, 4 and 8 weeks after treatment. Control was determined visually by comparing treated and untreated weeds and scored on a 0 to 100 percent scale where 0 corresponds to no control and 100 corresponds to complete kill.

Structure (SMILES): COc1cnc(OC)n2nc(NS(=O)(=O)c3c(OCC(F)F)cccc3C(F)(F)F)nc12 [Penoxsulam, 2-(2,2-difluoroethoxy)-N-(5,8-dimethoxy[1,2,4]triazolo[1,5-c]-pyrimidin-2-yl)-6-(trifluoromethyl)benzenesulfonamide]
- Pre-emergent Percent Mean Control ([1]; 8.8 gai/Ha): 95%
- Pre-emergent Percent Mean Control ([1]; 17.5 gai/Ha): 100%
- Pre-emergent Percent Mean Control ([1]; 35 gai/Ha): 100%
- Pre-emergent Percent Mean Control ([1]; 70 gai/Ha): 100%
- Percent Weed Control 26-27 DAA ([2]; carrier 28-4-12, particle size 0.75 mm, 11.2 gai/Ha): 56%
- Percent Weed Control 26-27 DAA ([2]; carrier 28-4-12, particle size 0.75 mm, 22.4 gai/Ha): 70%
- Percent Weed Control 26-27 DAA ([2]; carrier 28-4-12, particle size 2.15 mm, 11.2 gai/Ha): 49%
- Percent Weed Control 26-27 DAA ([2]; carrier 28-4-12, particle size 2.15 mm, 22.4 gai/Ha): 42%
- Percent Weed Control 26-27 DAA ([2]; carrier 46-0-0, particle size 0.75 mm, 11.2 gai/Ha): 44%
- Percent Weed Control 26-27 DAA ([2]; carrier 46-0-0, particle size 0.75 mm, 22.4 gai/Ha): 87%
- Percent Weed Control 26-27 DAA ([2]; carrier 46-0-0, particle size 2.15 mm, 11.2 gai/Ha): 38%
- Percent Weed Control 26-27 DAA ([2]; carrier 46-0-0, particle size 2.15 mm, 22.4 gai/Ha): 75%
